Active and inactive are the calls of the source. The calls are words filed in the database; no cut-off is given here.
Columns and labels:
[1] = molecular target: T1, Retinoic acid receptor RXR-alpha (Homo sapiens, UniProt P19793); experiment: Agonist activity at RXRalpha by luciferase reporter gene assay; format: functional
T1 sequence (P19793 whole entry): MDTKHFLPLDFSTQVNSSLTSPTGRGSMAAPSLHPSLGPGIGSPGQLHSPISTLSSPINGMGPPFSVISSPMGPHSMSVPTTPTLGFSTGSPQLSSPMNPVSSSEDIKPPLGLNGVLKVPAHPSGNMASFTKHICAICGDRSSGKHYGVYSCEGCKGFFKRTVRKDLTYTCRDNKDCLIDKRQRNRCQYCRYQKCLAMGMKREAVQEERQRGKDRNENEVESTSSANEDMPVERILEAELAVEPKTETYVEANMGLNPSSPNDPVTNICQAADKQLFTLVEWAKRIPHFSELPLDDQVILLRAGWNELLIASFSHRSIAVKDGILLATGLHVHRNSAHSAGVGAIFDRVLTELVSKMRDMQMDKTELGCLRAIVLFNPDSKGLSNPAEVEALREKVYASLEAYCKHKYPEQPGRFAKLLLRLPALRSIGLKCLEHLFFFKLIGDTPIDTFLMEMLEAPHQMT

[2] = molecular target: T2, Oxysterols receptor LXR-alpha (Homo sapiens) (UniProt Q13133); experiment: Transactivation of LXRalpha
T2 sequence (whole entry): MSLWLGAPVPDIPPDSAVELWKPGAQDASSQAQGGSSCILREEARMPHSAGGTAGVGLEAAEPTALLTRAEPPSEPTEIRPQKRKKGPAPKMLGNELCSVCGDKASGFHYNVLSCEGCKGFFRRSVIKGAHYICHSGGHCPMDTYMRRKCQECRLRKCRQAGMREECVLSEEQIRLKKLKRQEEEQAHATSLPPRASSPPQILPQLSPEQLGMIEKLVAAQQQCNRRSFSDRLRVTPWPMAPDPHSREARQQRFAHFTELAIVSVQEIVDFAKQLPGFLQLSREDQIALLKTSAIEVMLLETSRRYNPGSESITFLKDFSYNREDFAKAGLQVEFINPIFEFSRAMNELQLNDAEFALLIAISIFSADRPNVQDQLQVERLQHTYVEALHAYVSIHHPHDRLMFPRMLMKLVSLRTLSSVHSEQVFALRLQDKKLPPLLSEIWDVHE

[3] = molecular target: T3, Retinoic acid receptor alpha (Homo sapiens) (UniProt P10276); experiment: Transactivation of RARalpha in human COS7 cells at 10 uM by luciferase reporter gene assay; format: cell-based; details: COS-7
T3 sequence (whole entry): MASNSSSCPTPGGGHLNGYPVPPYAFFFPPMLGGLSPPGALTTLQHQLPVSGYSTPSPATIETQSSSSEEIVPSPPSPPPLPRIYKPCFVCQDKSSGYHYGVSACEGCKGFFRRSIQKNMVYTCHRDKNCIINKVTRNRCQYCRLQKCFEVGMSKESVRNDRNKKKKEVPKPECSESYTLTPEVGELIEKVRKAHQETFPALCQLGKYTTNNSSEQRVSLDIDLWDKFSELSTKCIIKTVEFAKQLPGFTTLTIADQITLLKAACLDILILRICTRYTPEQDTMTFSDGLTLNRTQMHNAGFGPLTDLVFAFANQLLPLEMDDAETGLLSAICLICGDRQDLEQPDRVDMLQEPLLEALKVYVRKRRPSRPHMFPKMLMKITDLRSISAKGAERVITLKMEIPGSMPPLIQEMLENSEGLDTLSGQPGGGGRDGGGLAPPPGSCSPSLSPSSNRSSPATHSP

[4] = molecular target: T4, Peroxisome proliferator-activated receptor gamma (Homo sapiens) (UniProt P37231); experiment: Transactivation of PPARgamma
T4 sequence (whole entry): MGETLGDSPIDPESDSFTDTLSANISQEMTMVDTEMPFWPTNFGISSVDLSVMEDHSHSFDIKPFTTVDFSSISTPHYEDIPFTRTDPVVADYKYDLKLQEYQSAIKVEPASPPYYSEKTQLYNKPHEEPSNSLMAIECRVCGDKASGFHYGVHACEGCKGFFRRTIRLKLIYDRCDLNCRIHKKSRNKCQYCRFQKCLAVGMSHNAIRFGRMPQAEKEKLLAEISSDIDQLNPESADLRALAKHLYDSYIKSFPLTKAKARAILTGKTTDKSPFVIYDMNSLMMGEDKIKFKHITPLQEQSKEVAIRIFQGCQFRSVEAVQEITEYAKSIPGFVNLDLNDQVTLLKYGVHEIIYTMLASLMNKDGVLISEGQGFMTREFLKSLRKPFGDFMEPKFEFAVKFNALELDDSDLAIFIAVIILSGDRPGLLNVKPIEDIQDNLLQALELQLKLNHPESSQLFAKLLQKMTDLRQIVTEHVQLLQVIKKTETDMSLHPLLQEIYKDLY

[5] = molecular target: Retinoic acid receptor RXR-alpha/oxysterols receptor LXR-alpha (Homo sapiens) (UniProt P19793+Q13133); experiment: Transactivation of LXRalpha/RXRalpha; format: protein-complex assay
[6] = molecular target: RXR alpha/PPAR gamma (Homo sapiens) (UniProt P37231+P19793); experiment: Transactivation of PPARgamma/RXRalpha heterodimer; format: protein-complex assay
[7] = molecular target: T5, Retinoic acid receptor RXR-alpha (Homo sapiens) (UniProt P19793); experiment: Transactivation of RXRalpha in human COS7 cells at 10 uM by luciferase reporter gene assay; format: cell-based; details: COS-7
T5 sequence (whole entry): T1 sequence (P19793 whole entry)

Row | SMILES | EC50 [1] [nM] | Activity [2] | Activity [3] | Activity [4] | Activity [5] [%] | Activity [6] [%] | Activity [7]
1 | CCN(c1ccc2c(c1)C(C)(C)CCC2(C)C)c1ccc(C(=O)O)cn1 | 5.28 | inactive | inactive | inactive | 60 | 60 | 
2 | CCN(c1ccc2c(c1)C(C)(C)CCC2(C)C)c1ccc(-c2nnn[nH]2)cn1 | 205 | inactive | inactive | inactive | 60 | 40 | 
3 | CCN(c1ccc2c(c1)C(C)(C)CCC2(C)C)c1ccc(P(=O)(O)O)cn1 |  |  | inactive |  |  |  | inactive
4 | CCN(c1ccc2c(c1)C(C)(C)CCC2(C)C)c1ccc(C(=O)NO)cn1 |  | inactive | inactive | inactive | 50 | 20 | 

Source: ChEMBL document CHEMBL1221250, “Modification at the acidic domain of RXR agonists has little effect on permissive RXR-heterodimer activation” (Bioorg Med Chem Lett, 2010)
